Consider 7 molecules from patent publication US20040258621A1, “Method of treating snoring and other obstructive breathing disorders” (priority 2002, published 2004).

The structures appear in SMILES notation. Counter-ions that a name gives are not always drawn. Like-named read-outs stand apart in the source and are kept apart here.

Series [1] has as its system heartburn symptoms and lesions caused by heartburn. The settings on record: according to the manufacturer AstraZeneca; cited from earlier work.
For series [2] the following is noted: cited from earlier work; for stability in acidic media: acid media.
The conditions of series [3]: cited from earlier work.
Series [4] has as its system outpatients with significant snoring. Nature of the series: Open label study on 8 outpatients with significant snoring. Format: in vivo, human. Conditions: 30 mg, 35 to 90 days (mean 61 days). The protocol: An open label study was performed on 8 outpatients with significant snoring. The patients were treated with Prevacid 30 mg. for 30-90 days. The entry criteria were snoring with or without sleep apnea, documented by history, physical exam, and independent sleep lab studies. […] At baseline patients had all been placed on conservative nasal regimen with no improvement in their symptoms. […] At the end of treatment changes in global and spousal ratings of snoring were made along with investigator observations.
The demographics of the study group were eight males no females; a mean age of 50.6 years with a range of 32-70; a mean weight of 206 lbs with a range of 160-260; and there were 6 white, 1 black, and 1 Asian in the group. At baseline the investigator made the diagnosis of GERD in 4 patients. Spousal ratings of snoring were 3 moderate and 5 severe; 4 had moderate or severe sleep apnea; and all 8 had daytime sleepiness.
The duration of treatment ranged from 35 to 90 days with a mean of 61 days. At conclusion of the study, 7 of 8 patients had moderate or marked improvement in snoring. […] 8 of 8 patients had marked improvement in their sleep with less waking and less daytime fatigue.

The subject of series [5] is snoring in a nocturnal breathing obstructed person with GERD. Nature of the series: Case study of a snoring patient with GERD. The format is in vivo, human. The settings on record: for beneficial effect on snoring: throughout the subsequent year. The source says: A person, 5 feet 3 inches tall and moderately overweight reported a 15-20 year history of progressively increasing snoring. The intensity of their snoring was well documented by their spouse, who experienced disturbed sleep as a result of their spouse's snoring, occasionally requiring them to waken the patient in order for them to obtain relief. The patient gave no history of naso-pharyngeal structural abnormalities or surgery (other than third molar extraction) and had experienced no breathing disorder.
The patient complained to their physician of a chronic scratchiness in their throat, thought to be a result of gastroesophageal reflux disease (GERD). To treat the GERD symptoms, the patient was placed on Prevacid (Lansoprazole) 15 mg once daily.

The conditions of series [6]: +37° C., relative humidity 80%, 6 months; cited from earlier work.
For series [7] the following is noted: especially at room temperature; cited from earlier work.

With `COc1ccc2c(c1)nc([S@@+]([O-])Cc1ncc(C)c(OC)c1C)[n]2[Mg][n]1c([S@@+]([O-])Cc2ncc(C)c(OC)c2C)nc2cc(OC)ccc21.O.O.O` [esomeprazole magnesium, bis(5-methoxy-2-[(S)-[(4-methoxy-3,5-dimethyl-2-pyridinyl)methyl]sulfinyl]-1H-benzimidazole-1-yl) magnesium trihydrate], in series [1], the “rates of healing of certain lesions caused by heartburn versus PRILOSEC” value is recorded as “higher rates of healing” and the “reduction of heartburn symptoms versus PRILOSEC” value is “faster”. In series [2], the “stability in acidic media” value is given as “rapidly degrades” and the “stability under alkaline conditions” value is “acceptable stability”. Moreover, the solubility entry in series [3] (water) was “slightly soluble”.

For the molecule `COCCCOc1ccnc(C[S+]([O-])c2nc3ccccc3[nH]2)c1C` (stereo not drawn) [Rabeprazole sodium, 2-[[[4-(3-methoxypropoxy)-3-methyl-2-pyridinyl]-methyl]sulfinyl]-1H-benzimidazole sodium salt], the “stability in acidic media” value in series [2] is reported as “rapidly degraded”. Also, the “stability under alkaline conditions” value in series [2] is “more stable”. For the same molecule, the solubility result in series [3] (chloroform) is reported as “freely soluble”; in series [3] (ethanol), “freely soluble”; in series [3] (ether) it was “insoluble”; in series [3] (ethyl acetate), “freely soluble”; in series [3] (methanol), “very soluble”; in series [3] (n-hexane), “insoluble”. Also, the solubility entry in series [3] (water) was “very soluble”.

Turning to `Cc1c(OCC(F)(F)F)ccnc1C[S+]([O-])c1nc2ccccc2[nH]1` (stereo not drawn) [Prevacid (Lansoprazole), 2-[[[3-methyl-4-(2,2,2-trifluoroethoxy)-2-pyridyl]methyl]sulfinyl]benzimidazole], in series [4], the “patients with marked improvement in their sleep with less waking and less daytime fatigue” value was 8 of 8; the “patients with moderate or marked improvement in snoring” value is 7 of 8. Moreover, the “intensity of the patient's snoring (spouse's observation)” value in series [5] (15 mg once daily) is listed as “gradual decline”. Also, the throat scratchiness entry in series [5] (15 mg once daily, after beginning treatment) is “declined promptly”. The “benefit on snoring sustained for the duration of dosing” value in series [5] (15 mg once daily, approximately 12 months) was “moderate to marked benefit”. The “snoring after dosing was interrupted” value in series [5] (dosing interrupted for several weeks) is on record as “resumption of noticeable snoring intensity”.

For `NC(N)=Nc1nc(CSCCC(N)=NS(N)(=O)=O)cs1` [Pepcid AC (Famotidine), famotidine], the “beneficial effect on snoring” value in series [5] is “maintained”.

On to `CN/C(=N/CCSCc1nc[nH]c1C)NC#N` [Tagamet (Cimetidine), cimetidine], for which the “beneficial effect on snoring” value in series [5] was “maintained”.

As to `COc1ccc2[nH]c([S+]([O-])Cc3ncc(C)c(OC)c3C)nc2c1` (stereo not drawn) [omeprazole, 5-methoxy-2-[[(4-methoxy-3,5-dimethyl-2-pyridinyl)methyl]sulfinyl]-1H-benzimidazole], the “substance converted to degradation products” value in series [6] was “about 6%”.

For the molecule `COc1ccc2[nH]c([S+]([O-])Cc3ncc(C)c(OC)c3C)nc2c1` (stereo not drawn) [Omeprazole form A, omeprazole], the “thermodynamic stability versus omeprazole form B” value in series [7] was “thermodynamically more stable”.
